Test results as given in BindingDB's records for doi:10.1111/j.1476-5381.1995.tb15923.x (Zeneca Pharmaceuticals, 1995).

Target: Adenosine receptor A2a (Rattus norvegicus, UniProt P30543)
Sequence (P30543 whole entry): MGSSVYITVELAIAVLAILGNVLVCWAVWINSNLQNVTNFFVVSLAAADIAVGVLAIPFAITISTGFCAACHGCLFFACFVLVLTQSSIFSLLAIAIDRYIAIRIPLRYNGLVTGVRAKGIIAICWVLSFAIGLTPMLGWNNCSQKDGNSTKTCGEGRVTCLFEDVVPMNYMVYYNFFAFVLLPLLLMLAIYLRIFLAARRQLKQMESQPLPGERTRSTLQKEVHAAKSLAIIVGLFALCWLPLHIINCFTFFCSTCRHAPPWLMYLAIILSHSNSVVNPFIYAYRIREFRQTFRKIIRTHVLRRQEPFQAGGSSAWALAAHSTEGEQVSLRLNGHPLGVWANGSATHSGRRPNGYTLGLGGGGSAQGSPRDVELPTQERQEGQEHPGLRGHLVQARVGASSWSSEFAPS

Ki [µM]	SMILES
> 10	Cn1c(=O)c2[nH]c(-c3ccccc3)nc2n(C)c1=O [1,3-Dimethyl-8-phenyl-3,9-dihydro-purine-2,6-dione]
> 10	Cn1c(=O)c2[nH]c(-c3ccc(S(=O)(=O)O)cc3)nc2n(C)c1=O [4-(1,3-Dimethyl-2,6-dioxo-2,3,6,7-tetrahydro-1H-purin-8-yl)-benzenesulfonic acid]
